Measured values from patent US11766430B2, “Methods of using a phenoxypropylamine compound to treat pain” (Minerva Neurosciences, Inc., priority 2018, dated 2023).
Several values for one entry are separate records, joined by “and”; a condition that tells them apart may be missing. Identical values can stand only once.

Tested on: peripheral mononeuropathy (Bennett model) in rats
Test: Peripheral mononeuropathy (Bennett model, chronic constriction injury), paw pressure test (Example 3)
Format: in vivo, male Sprague-Dawley rats
Conditions: for paw withdrawal threshold, control paw, Mean: n = 10; for Nociceptive threshold, control paw (mean ± s.e.m.): T0 (14 days after surgery, before dosing)
Experimental: The model of Chronic Constriction Injury (CCI) is based on a discrete peripheral nerve injury and can be related to post-traumatic/postsurgical neuropathic pain experienced by patients (Bennett, G. J. and Xie, Y. K., A peripheral mononeuropathy in rat that produces disorders of pain sensation like those seen in man, Pain, 1988(33):87-107). Unilateral peripheral mononeuropathy was induced by loose ligation of the rat the sciatic nerve of the right hindpaw in anaesthetized rats (xylazine 10 mg/kg i.p., ketamine 60 mg/kg i.p.). The common sciatic nerve was exposed at the level of the middle of the thigh by blunt dissection through the biceps femoris. Proximal to the sciatic trifurcation, four ligatures were tied loosely around it with about 1 mm spacing. Great care was taken to tie the ligatures, such that the diameter of the nerve was seen to be just barely constricted.
Fourteen days later, static mechanical hyperalgesia is assessed using the Paw pressure test (Randall, L. O. and Selitto, J. J., A method for measurement of analgesic activity on inflamed tissue, Arch Int Pharmacodyn, 1957(111):409-419). This test requires the application of an increasing pressure on the hind paws between a flat surface and a blunt pointer. This test is usually used with animals with one hindpaw inflamed by an injection or injured by ligation, and one normal hindpaw, to evaluate drugs for analgesic action. The apparatus exerts a steadily increasing force and reaction threshold is determined as the pressure (g) required to elicit paw withdrawal and/or vocalization. Ugo Basile Analgesimeter (Ugo Basile, Italy) was used for the paw pressure test.
Fourteen days after surgery (D0), nociceptive reaction thresholds (vocalization or paw withdrawal) was measured in order to select animals meeting the inclusion criteria: 20 g<paw withdrawal threshold<240 g (baseline).
Fifty (50) male Sprague-Dawley rats (SPF status, Janvier, France), weighing 133-181 grams the day of surgery were used. Rats were housed in a temperature (20-24° C.) and relative humidity (45%-65%) controlled room and acclimated to an artificial day/night cycle of 12 hours light (6:30 a.m. to 6:30 p.m.)/12 hours darkness. Rats had free access to sterilized tap water and were fed ad libitum with pelleted complete diet (reference A04, S.A.F.E.). Animals were housed 4 per cage (cages Type E) and were acclimated for a period of at least 5 days before any testing. Each rat was identified by tail markings. Based on the SPF status of the animal facilities, there is no reason to expect that contaminants were present in the food, water or bedding, at levels capable of interfering with the results of the tests. […]
Vehicle and MIN-117 were intraperitoneally administered at 10 mL/kg. […] Dosing and testing were performed in a random order by a blinded experimenter except for the morphine-treated group.
Thirty minutes after morphine injection, the antihyperalgesic effect of morphine was evaluated using the paw pressure test. For vehicle and MIN-117 administration, the antihyperalgesic effect of the was evaluated after 120 min. using the paw pressure test.
Results were expressed as: • The paw withdrawal threshold (mean±s.e.m.) in grams of contact pressure for each group, calculated from individual paw withdrawal thresholds • The percentage of variation of the paw withdrawal threshold calculated from the mean value of the vehicle-treated group • The percentage of activity of the compound on mechanical hyperalgesia induced by the sciatic nerve ligation, calculated as follows: […]

[1] = CCI rats, Morphine 3 mg/kg IP [sic], 30 min
[2] = CCI rats, Morphine 3 mg/kg IP [sic], 30 min after treatment
[3] = CCI rats, Morphine 3 mg/kg group, Baseline (pre-treatment)
[4] = CCI, 3 mg/kg SC, T0 (before dosing)
[5] = CCI rats, MIN-117 1 mg/kg IP group, Baseline (pre-treatment)
[6] = CCI rats, MIN-117 1 mg/kg IP, 120 min
[7] = CCI rats, MIN-117 1 mg/kg IP, 120 min after treatment, hydrochloride, 1 mg/kg
[8] = CCI rats, MIN-117 3 mg/kg IP group, Baseline (pre-treatment)
[9] = CCI rats, MIN-117 3 mg/kg IP, 120 min
[10] = CCI rats, MIN-117 3 mg/kg IP, 120 min after treatment, hydrochloride, 3 mg/kg
[11] = CCI rats, MIN-117 10 mg/kg IP group, Baseline (pre-treatment)
[12] = CCI rats, MIN-117 10 mg/kg IP, 120 min
[13] = CCI rats, MIN-117 10 mg/kg IP, 120 min after treatment, hydrochloride, 10 mg/kg
[14] = CCI, 1 mg/kg IP, T0 (before dosing)
[15] = CCI, 3 mg/kg IP, T0 (before dosing)
[16] = CCI, 10 mg/kg IP, T0 (before dosing)

Compound: CN1CC[C@]23c4c5ccc(O)c4O[C@H]2[C@@H](O)C=C[C@H]3[C@H]1C5 [Morphine, reference compound]
- % activity on mechanical hyperalgesia, injured paw [1]: 165%
- % variation vs control paw, injured paw [1]: −23%
- % variation vs pre-drug threshold, injured paw [1]: 159%
- paw withdrawal threshold, control paw, individual rats [2]: 680 g (2×) and 640 g (3×) and 600 g (3×) and 560 g and 660 g
- paw withdrawal threshold, injured paw, individual rats [2]: 680 g and 600 g (2×) and 480 g (2×) and 560 g and 320 g and 500 g and 240 g and 400 g
- paw withdrawal threshold, control paw, Mean [2]: 630 g
- % variation vs control paw, injured paw [3]: −49%
- % variation vs vehicle treated group, injured paw [3]: 6%
- paw withdrawal threshold, control paw, Mean [3]: 372 g
- Nociceptive threshold, control paw (mean ± s.e.m.) (CCI, 3 mg/kg SC): 372 ± 20.7 g
- % variation vs control paw, injured paw [4]: −49%
- % variation vs vehicle-treated group, injured paw [4]: 6%
- Nociceptive threshold, injured paw (mean ± s.e.m.) (CCI, 3 mg/kg SC, T0 (before dosing), 3 mg/kg): 188 ± 10.4 g
- % variation vs control paw, injured paw (CCI, 3 mg/kg SC, T0 + 30 min): −23%
- % variation vs pre-drug threshold, injured paw (CCI, 3 mg/kg SC, T0 + 30 min): 159%
- Nociceptive threshold, injured paw (mean ± s.e.m.) (CCI, 3 mg/kg SC, T0 + 30 min, 3 mg/kg): 486 ± 42.8 g
- Effect on nociceptive threshold vs baseline pre-treatment (in words) (CCI, 3 mg/kg s.c., 30 min. after the administration): pronounced and significant increase

Compound: Cc1nnc(-c2cc3c(OC[C@@H](O)CN4CCC(c5ccc(Cl)c(Cl)c5)CC4)cccc3o2)o1.Cl [MIN-117, (2S)-1-(4-(3,4-dichlorophenyl)piperidin-1-yl)-3-((2-(5-methyl-1,3,4-oxadiazol-2-yl)benzofuran-4-yl)oxy)propan-2-ol hydrochloride]
- % variation vs control paw, injured paw [5]: −54%
- % variation vs vehicle treated group, injured paw [5]: −6%
- paw withdrawal threshold, control paw, Mean [5]: 366 g
- % activity on mechanical hyperalgesia, injured paw [6]: 9%
- % variation vs control paw, injured paw [6]: −47%
- % variation vs pre-drug threshold, injured paw [6]: 10%
- % variation vs vehicle treated group, injured paw [6]: 11%
- paw withdrawal threshold, control paw, individual rats [7]: 400 g (2×) and 300 g (2×) and 360 g and 320 g (4×) and 440 g
- paw withdrawal threshold, injured paw, individual rats [7]: 200 g (3×) and 180 g (3×) and 160 g (3×) and 220 g
- paw withdrawal threshold, control paw, Mean (CCI rats, MIN-117 1 mg/kg IP, 120 min after treatment): 348 g
- % variation vs control paw, injured paw [8]: −55%
- % variation vs vehicle treated group, injured paw [8]: −8%
- paw withdrawal threshold, control paw, Mean [8]: 364 g
- % activity on mechanical hyperalgesia, injured paw [9]: 29%
- % variation vs control paw, injured paw [9]: −40%
- % variation vs pre-drug threshold, injured paw [9]: 35%
- % variation vs vehicle treated group, injured paw [9]: 34%
- paw withdrawal threshold, control paw, individual rats [10]: 440 g and 420 g (2×) and 300 g and 360 g (2×) and 340 g (2×) and 460 g and 280 g
- paw withdrawal threshold, injured paw, individual rats [10]: 280 g and 220 g (2×) and 200 g (3×) and 180 g and 240 g (3×)
- paw withdrawal threshold, control paw, Mean (CCI rats, MIN-117 3 mg/kg IP, 120 min after treatment): 372 g
- % variation vs control paw, injured paw [11]: −55%
- % variation vs vehicle treated group, injured paw [11]: −8%
- paw withdrawal threshold, control paw, Mean [11]: 368 g
- % activity on mechanical hyperalgesia, injured paw [12]: 59%
- % variation vs control paw, injured paw [12]: −33%
- % variation vs pre-drug threshold, injured paw [12]: 71%
- % variation vs vehicle treated group, injured paw [12]: 69%
- paw withdrawal threshold, control paw, individual rats [13]: 600 g and 320 g and 440 g (4×) and 400 g and 280 g and 480 g and 360 g
- paw withdrawal threshold, injured paw, individual rats [13]: 440 g and 320 g (2×) and 260 g and 220 g and 240 g (4×) and 280 g
- paw withdrawal threshold, control paw, Mean (CCI rats, MIN-117 10 mg/kg IP, 120 min after treatment): 420 g
- Nociceptive threshold, control paw (mean ± s.e.m.) (CCI, 1 mg/kg IP): 366 ± 16.1 g
- % variation vs control paw, injured paw [14]: −54%
- % variation vs vehicle-treated group, injured paw [14]: −6%
- Nociceptive threshold, injured paw (mean ± s.e.m.) [14]: 168 ± 8.0 g
- % variation vs control paw, injured paw (CCI, 1 mg/kg IP, T0 + 120 min): −47%
- % variation vs pre-drug threshold, injured paw (CCI, 1 mg/kg IP, T0 + 120 min): 10%
- % variation vs vehicle-treated group, injured paw (CCI, 1 mg/kg IP, T0 + 120 min): 11%
- Nociceptive threshold, injured paw (mean ± s.e.m.) (CCI, 1 mg/kg IP, T0 + 120 min): 184 ± 6.5 g
- Effect on nociceptive threshold vs vehicle-treated group (in words) (CCI, 1 mg/kg i.p., 120 min. after treatment): did not induce any significant increase
- Nociceptive threshold, control paw (mean ± s.e.m.) (CCI, 3 mg/kg IP): 364 ± 9.8 g
- % variation vs control paw, injured paw [15]: −55%
- % variation vs vehicle-treated group, injured paw [15]: −8%
- Nociceptive threshold, injured paw (mean ± s.e.m.) [15]: 164 ± 5.8 g
- % variation vs control paw, injured paw (CCI, 3 mg/kg IP, T0 + 120 min): −40%
- % variation vs pre-drug threshold, injured paw (CCI, 3 mg/kg IP, T0 + 120 min): 35%
- % variation vs vehicle-treated group, injured paw (CCI, 3 mg/kg IP, T0 + 120 min): 34%
- Nociceptive threshold, injured paw (mean ± s.e.m.) (CCI, 3 mg/kg IP, T0 + 120 min, hydrochloride, 3 mg/kg): 222 ± 9.2 g
- Effect on nociceptive threshold vs vehicle-treated group (in words) (CCI, 3 mg/kg i.p., after 120 min.): significant increase
- Nociceptive threshold, control paw (mean ± s.e.m.) (CCI, 10 mg/kg IP): 368 ± 16.9 g
- % variation vs control paw, injured paw [16]: −55%
- % variation vs vehicle-treated group, injured paw [16]: −8%
- Nociceptive threshold, injured paw (mean ± s.e.m.) [16]: 164 ± 7.2 g
- % variation vs control paw, injured paw (CCI, 10 mg/kg IP, T0 + 120 min): −33%
- % variation vs pre-drug threshold, injured paw (CCI, 10 mg/kg IP, T0 + 120 min): 71%
- % variation vs vehicle-treated group, injured paw (CCI, 10 mg/kg IP, T0 + 120 min): 69%
- Nociceptive threshold, injured paw (mean ± s.e.m.) (CCI, 10 mg/kg IP, T0 + 120 min, hydrochloride, 10 mg/kg): 280 ± 20.9 g
- Effect on nociceptive threshold vs vehicle-treated group (in words) (CCI, 10 mg/kg i.p., after 120 min.): significant increase
